From US8445409B2, “Use of 5-benzyloxymethyl-1,2-isoxazoline derivatives as a herbicide” (Moghu Research Center Ltd., priority 2007, dated 2013)

Legend:
[1] = system: all the tested gramineous weeds; assay: Example 3-1, gramineous weeds as a group; type: in vivo, large crabgrass, annual bluegrass, goosegrass; details: PRE and POST timings, 0.25 kg/ha to 4 kg/ha
Excerpt: (§1) Commercially available sod mats of zoysiagrass and bentgrass, Kentucky bluegrass, and perennial ryegrass were purchased. After cutting each turf sod mat in a size of 10 cm×20 cm, it was transplanted to a rectangular plastic pot having a surface area of 300 cm^2 wherein mixed soils including blend of a bed soil (Boonong, Horticultural Nursery Soil No. 3) and sandy loam soil were filled (mixing ratio, 1:1). After transplanting, the grass was mowed (0.5˜1.0 cm in height) once a week, and kept for one month in a greenhouse maintained at 25˜30° C. (day) or 15˜25° C. (night). Then three strips of 1 cm width were removed by excision with a scissor. The open space was filled with a new soil, and seeds of large crabgrass, annual bluegrass, or goosegrass were sown. The pots were kept in a greenhouse. When the said weeds were grown up to the 3 leaf stage, another set was prepared in the same method. The first set represented post-emergence (POST) and the second set represented pre-emergence (PRE) stages of the weeds (large crabgrass, annual bluegrass, goosegrass). Then the test compound was applied at 0.25, 0.5. 1.0, 2.0, and 4.0 kg/ha. […] Four weeks after the spray of the test substance, phytotoxicity to the turfgrass and herbicidal activity to the said weeds were visually evaluated based on 0 to 100 scale (0: no phytotoxic effect, 100: completely killed). […]

turfgrasses = assay: Example 3-1, turfgrasses as a group; type: in vivo; details: 2 kg/ha or below
Excerpt: as §1

Bentgrass = assay: Selective control of grassy weeds in turf (Example 3-1), visual rating; type: in vivo; details: four weeks after spray, 0-100 scale (100=completely killed)
Excerpt: (§2) Commercially available sod mats of zoysiagrass and bentgrass, Kentucky bluegrass, and perennial ryegrass were purchased. After cutting each turf sod mat in a size of 10 cm×20 cm, it was transplanted to a rectangular plastic pot having a surface area of 300 cm^2 wherein mixed soils including blend of a bed soil (Boonong, Horticultural Nursery Soil No. 3) and sandy loam soil were filled (mixing ratio, 1:1). After transplanting, the grass was mowed (0.5˜1.0 cm in height) once a week, and kept for one month in a greenhouse maintained at 25˜30° C. (day) or 15˜25° C. (night). Then three strips of 1 cm width were removed by excision with a scissor. The open space was filled with a new soil, and seeds of large crabgrass, annual bluegrass, or goosegrass were sown. The pots were kept in a greenhouse. When the said weeds were grown up to the 3 leaf stage, another set was prepared in the same method. The first set represented post-emergence (POST) and the second set represented pre-emergence (PRE) stages of the weeds (large crabgrass, annual bluegrass, goosegrass). Then the test compound was applied at 0.25, 0.5. 1.0, 2.0, and 4.0 kg/ha. Spray was made by a track sprayer equipped with a Teejet 8002 nozzle. Spray volume was adjusted to 2,000 L/ha. The spray solution was prepared by dissolving the “test substance” in acetone and adding the same volume of 0.2% (v/v) Tween 20 aqueous solution. Four weeks after the spray of the test substance, phytotoxicity to the turfgrass and herbicidal activity to the said weeds were visually evaluated based on 0 to 100 scale (0: no phytotoxic effect, 100: completely killed). The test was conducted in a completely randomized design with 3 replicates.

Goosegrass = assay: as above; type: in vivo; details: four weeks after spray, 0-100 scale (100=completely killed); for Herbicidal activity, visual: Weeds GSG (POST): 3 leaf stage
Excerpt: as §2

Perennial ryegrass = assay: as above; type: in vivo; details: four weeks after spray, 0-100 scale (100=completely killed)
Excerpt: as §2

Annual bluegrass = assay: as above; type: in vivo; details: four weeks after spray, 0-100 scale (100=completely killed); for Herbicidal activity, visual: Weeds ABG (POST): 3 leaf stage
Excerpt: as §2

Large crabgrass = assay: as above; type: in vivo; details: four weeks after spray, 0-100 scale (100=completely killed); for Herbicidal activity, visual: Weeds LCG (POST): 3 leaf stage
Excerpt: as §2

Kentucky bluegrass = assay: as above; type: in vivo; details: four weeks after spray, 0-100 scale (100=completely killed)
Excerpt: as §2

Zoysiagrass = assay: as above; type: in vivo; details: four weeks after spray, 0-100 scale (100=completely killed)
Excerpt: as §2

[2] = system: all types of the turfgrasses; assay: Turfgrass safety test, all turfgrasses as a group; type: in vivo
Excerpt: Commercially available sod mats of zoysiagrass and bentgrass, Kentucky bluegrass, and perennial ryegrass were purchased. After cutting each turf sod mat in a size of 10 cm×20 cm, it was transplanted to a rectangular plastic pot having a surface area of 300 cm^2 wherein mixed soils including blend of a bed soil (Boonong, Horticultural Nursery Soil No. 3) and sandy loam soil were filled (mixing ratio, 1:1). After transplanting, the grass was mowed (0.5˜1.0 cm in height) once a week, and kept for one month in a greenhouse maintained at 25˜30° C. (day) or 15˜25° C. (night), then the test substance of the present invention was applied at dosage of 4, 2, 1 and 0.5 kg/ha. As a reference, Dithiopyr (32% EC, manufactured by Dongbu Hannong Chemical Company, KOREA) was applied at the recommended rate of 0.48 kg/ha, or twice or quadruple amount thereof, i.e., 0.96 and 1.92 kg/ha, respectively. Spray was made by a track sprayer equipped with a Teejet 8002 nozzle. Spray volume was adjusted to 2,000 L/ha, which was a typical value for an Asian (Korea and Japan) golf course. The spray solution was prepared by dissolving the “test substance” in acetone and adding the same volume of 0.2% (v/v) Tween 20 aqueous solution. Two, four or six weeks after the spray of the test substance, phytotoxicity to the turfgrass were visually evaluated based on 0 to 10 scale (0: no phytotoxic effect, 10: completely killed). The test was conducted in a randomized block design with a three replicates and the results were summarized in the following Table 2 is an average value of the replicates.

Question: For `Cc1ccsc1C1=NOC(C)(COCc2c(F)cccc2F)C1` (stereo not shown) [test substance, 5-(2,6-difluorobenzyl)oxymethyl-5-methyl-3-(4-methylthiophen-5-yl)-1,2-isoxazoline], which “Control of tested gramineous weeds (in words)” value [1] is on record?
Answer: The value was “very effectively”.

Question: What about the “Visible injury to turfgrasses (in words)” value (turfgrasses) of the same compound?
Answer: The value was “did not show any visible injury”.

Question: And the “Phytotoxicity, visual: Turfgrass BTG” value (Bentgrass; 0.25 kg/ha)?
Answer: The value was 0.

Question: What about the “Phytotoxicity, visual: Turfgrass BTG” value (Bentgrass; 0.5 kg/ha) of the same compound?
Answer: Its value is 0.

Question: What about the “Phytotoxicity, visual: Turfgrass BTG” value (Bentgrass; 1 kg/ha) of the same compound?
Answer: The value was 0.

Question: And the “Phytotoxicity, visual: Turfgrass BTG” value (Bentgrass; 2 kg/ha)?
Answer: The value was 0.

Question: What about the “Phytotoxicity, visual: Turfgrass BTG” value (Bentgrass; 4 kg/ha) of the same compound?
Answer: Its value is 10.

Question: And the “Herbicidal activity, visual: Weeds GSG (POST)” value (Goosegrass; 0.25 kg/ha)?
Answer: The value was 85.

Question: And the “Herbicidal activity, visual: Weeds GSG (PRE)” value (Goosegrass; 0.25 kg/ha)?
Answer: The value was 100.

Question: And the “Herbicidal activity, visual: Weeds GSG (POST)” value (Goosegrass; 0.5 kg/ha)?
Answer: Its value is 95.

Question: And the “Herbicidal activity, visual: Weeds GSG (PRE)” value (Goosegrass; 0.5 kg/ha)?
Answer: The value was 100.

Question: And the “Herbicidal activity, visual: Weeds GSG (POST)” value (Goosegrass; 1 kg/ha)?
Answer: The value was 100.

Question: What about the “Herbicidal activity, visual: Weeds GSG (PRE)” value (Goosegrass; 1 kg/ha) of the same compound?
Answer: The value was 100.

Question: And the “Herbicidal activity, visual: Weeds GSG (POST)” value (Goosegrass; 2 kg/ha)?
Answer: Its value is 100.

Question: And the “Herbicidal activity, visual: Weeds GSG (PRE)” value (Goosegrass; 2 kg/ha)?
Answer: Its value is 100.

Question: And the “Herbicidal activity, visual: Weeds GSG (POST)” value (Goosegrass; 4 kg/ha)?
Answer: The value was 100.

Question: What about the “Herbicidal activity, visual: Weeds GSG (PRE)” value (Goosegrass; 4 kg/ha) of the same compound?
Answer: The value was 100.

Question: What about the “Phytotoxicity, visual: Turfgrass PRG” value (Perennial ryegrass; 0.25 kg/ha) of the same compound?
Answer: The value was 0.

Question: And the “Phytotoxicity, visual: Turfgrass PRG” value (Perennial ryegrass; 0.5 kg/ha)?
Answer: Its value is 0.

Question: What about the “Phytotoxicity, visual: Turfgrass PRG” value (Perennial ryegrass; 1 kg/ha) of the same compound?
Answer: The value was 0.

Question: What about the “Phytotoxicity, visual: Turfgrass PRG” value (Perennial ryegrass; 2 kg/ha) of the same compound?
Answer: The value was 0.

Question: And the “Phytotoxicity, visual: Turfgrass PRG” value (Perennial ryegrass; 4 kg/ha)?
Answer: Its value is 0.

Question: And the “Herbicidal activity, visual: Weeds ABG (POST)” value (Annual bluegrass; 0.25 kg/ha)?
Answer: The value was 60.

Question: What about the “Herbicidal activity, visual: Weeds ABG (PRE)” value (Annual bluegrass; 0.25 kg/ha) of the same compound?
Answer: Its value is 100.

Question: And the “Herbicidal activity, visual: Weeds ABG (POST)” value (Annual bluegrass; 0.5 kg/ha)?
Answer: Its value is 75.

Question: What about the “Herbicidal activity, visual: Weeds ABG (PRE)” value (Annual bluegrass; 0.5 kg/ha) of the same compound?
Answer: Its value is 100.

Question: What about the “Herbicidal activity, visual: Weeds ABG (POST)” value (Annual bluegrass; 1 kg/ha) of the same compound?
Answer: Its value is 83.

Question: What about the “Herbicidal activity, visual: Weeds ABG (PRE)” value (Annual bluegrass; 1 kg/ha) of the same compound?
Answer: The value was 100.

Question: What about the “Herbicidal activity, visual: Weeds ABG (POST)” value (Annual bluegrass; 2 kg/ha) of the same compound?
Answer: Its value is 92.

Question: And the “Herbicidal activity, visual: Weeds ABG (PRE)” value (Annual bluegrass; 2 kg/ha)?
Answer: The value was 100.

Question: What about the “Herbicidal activity, visual: Weeds ABG (POST)” value (Annual bluegrass; 4 kg/ha) of the same compound?
Answer: Its value is 95.

Question: And the “Herbicidal activity, visual: Weeds ABG (PRE)” value (Annual bluegrass; 4 kg/ha)?
Answer: Its value is 100.

Question: What about the “Herbicidal activity, visual: Weeds LCG (POST)” value (Large crabgrass; 0.25 kg/ha) of the same compound?
Answer: Its value is 80.

Question: And the “Herbicidal activity, visual: Weeds LCG (PRE)” value (Large crabgrass; 0.25 kg/ha)?
Answer: The value was 100.

Question: And the “Herbicidal activity, visual: Weeds LCG (POST)” value (Large crabgrass; 0.5 kg/ha)?
Answer: The value was 90.

Question: And the “Herbicidal activity, visual: Weeds LCG (PRE)” value (Large crabgrass; 0.5 kg/ha)?
Answer: The value was 100.

Question: What about the “Herbicidal activity, visual: Weeds LCG (POST)” value (Large crabgrass; 1 kg/ha) of the same compound?
Answer: Its value is 95.

Question: What about the “Herbicidal activity, visual: Weeds LCG (PRE)” value (Large crabgrass; 1 kg/ha) of the same compound?
Answer: The value was 100.

Question: And the “Herbicidal activity, visual: Weeds LCG (POST)” value (Large crabgrass; 2 kg/ha)?
Answer: The value was 100.

Question: What about the “Herbicidal activity, visual: Weeds LCG (PRE)” value (Large crabgrass; 2 kg/ha) of the same compound?
Answer: The value was 100.

Question: What about the “Herbicidal activity, visual: Weeds LCG (POST)” value (Large crabgrass; 4 kg/ha) of the same compound?
Answer: The value was 100.

Question: What about the “Herbicidal activity, visual: Weeds LCG (PRE)” value (Large crabgrass; 4 kg/ha) of the same compound?
Answer: Its value is 100.

Question: And the “Phytotoxicity, visual: Turfgrass KBG” value (Kentucky bluegrass; 0.25 kg/ha)?
Answer: Its value is 0.

Question: And the “Phytotoxicity, visual: Turfgrass KBG” value (Kentucky bluegrass; 0.5 kg/ha)?
Answer: Its value is 0.

Question: What about the “Phytotoxicity, visual: Turfgrass KBG” value (Kentucky bluegrass; 1 kg/ha) of the same compound?
Answer: Its value is 0.

Question: And the “Phytotoxicity, visual: Turfgrass KBG” value (Kentucky bluegrass; 2 kg/ha)?
Answer: The value was 0.

Question: What about the “Phytotoxicity, visual: Turfgrass KBG” value (Kentucky bluegrass; 4 kg/ha) of the same compound?
Answer: The value was 21.

Question: What about the “Phytotoxicity, visual: Turfgrass ZSG” value (Zoysiagrass; 0.25 kg/ha) of the same compound?
Answer: The value was 0.

Question: What about the “Phytotoxicity, visual: Turfgrass ZSG” value (Zoysiagrass; 0.5 kg/ha) of the same compound?
Answer: Its value is 0.

Question: And the “Phytotoxicity, visual: Turfgrass ZSG” value (Zoysiagrass; 1 kg/ha)?
Answer: Its value is 0.

Question: What about the “Phytotoxicity, visual: Turfgrass ZSG” value (Zoysiagrass; 2 kg/ha) of the same compound?
Answer: The value was 0.

Question: And the “Phytotoxicity, visual: Turfgrass ZSG” value (Zoysiagrass; 4 kg/ha)?
Answer: Its value is 12.

Question: What about the “Phytotoxicity to turfgrasses (in words)” value ([2]; 1~2 kg/ha, compared to Dithiopyr at 0.48 kg/ha) of the same compound?
Answer: The value was “negligible phytotoxicity”.

Question: And the “Safety to all types of the turfgrasses (in words)” value ([2]; 4 kg/ha)?
Answer: Its value is “excellent safety”.

Question: And the “Phytotoxic effect to turfgrasses (in words)” value ([2]; dosage the same or less than 0.5 kg/ha)?
Answer: The value was “almost no phytotoxic effect”.
